Measured values taken from article PMC2045673, “Site-specific acetylation of ISWI by GCN5” (BMC Molecular Biology, 2007).

Assays:
Assay in all cases: radiometric HAT assay, SDS-PAGE autoradiography
Format in all cases: biochemical
[1] = biological target: T1, p300 (FLAG-p300) (Homo sapiens, UniProt Q09472); conditions: labelled compound; co-substrate histones, ISWI or peptide; pH 7.8, 26 °C
T1 construct: gene EP300; FLAG-tagged recombinant p300

[2] = biological target: T2, GCN5 (GST-hGCN5) (Homo sapiens, UniProt Q92830); conditions: labelled compound; co-substrate histones, ISWI or peptide; pH 7.8, 26 °C
T2 construct: gene KAT2A; GST-tagged, recombinant from E. coli
T2 sequence (Q92830 whole entry): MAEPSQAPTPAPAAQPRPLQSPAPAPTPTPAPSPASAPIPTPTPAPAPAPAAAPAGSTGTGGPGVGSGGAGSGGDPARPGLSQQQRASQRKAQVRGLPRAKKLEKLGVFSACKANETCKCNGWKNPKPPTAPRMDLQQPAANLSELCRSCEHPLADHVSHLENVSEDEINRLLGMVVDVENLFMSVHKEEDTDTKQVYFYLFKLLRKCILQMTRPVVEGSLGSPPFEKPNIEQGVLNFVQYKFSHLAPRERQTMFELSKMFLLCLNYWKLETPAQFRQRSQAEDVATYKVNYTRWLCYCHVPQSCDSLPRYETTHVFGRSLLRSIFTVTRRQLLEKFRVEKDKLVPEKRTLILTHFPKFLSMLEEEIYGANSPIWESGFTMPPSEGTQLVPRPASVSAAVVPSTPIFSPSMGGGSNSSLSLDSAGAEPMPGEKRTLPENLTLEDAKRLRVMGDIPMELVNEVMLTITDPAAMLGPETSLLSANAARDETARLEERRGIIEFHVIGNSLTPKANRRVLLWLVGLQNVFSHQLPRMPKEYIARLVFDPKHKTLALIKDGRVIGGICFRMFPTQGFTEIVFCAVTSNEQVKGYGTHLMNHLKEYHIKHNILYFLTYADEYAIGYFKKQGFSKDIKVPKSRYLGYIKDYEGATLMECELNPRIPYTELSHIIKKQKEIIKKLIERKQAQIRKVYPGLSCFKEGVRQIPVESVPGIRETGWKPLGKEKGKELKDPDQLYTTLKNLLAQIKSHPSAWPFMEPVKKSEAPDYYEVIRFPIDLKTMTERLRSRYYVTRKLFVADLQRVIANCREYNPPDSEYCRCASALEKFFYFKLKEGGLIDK

[3] = biological target: T3, MOF (HA-MOF) (Drosophila melanogaster, UniProt O02193); conditions: labelled compound; co-substrate histones; pH 7.8, 26 °C
T3 construct: HA-tagged recombinant MOF
T3 sequence (O02193 1-827): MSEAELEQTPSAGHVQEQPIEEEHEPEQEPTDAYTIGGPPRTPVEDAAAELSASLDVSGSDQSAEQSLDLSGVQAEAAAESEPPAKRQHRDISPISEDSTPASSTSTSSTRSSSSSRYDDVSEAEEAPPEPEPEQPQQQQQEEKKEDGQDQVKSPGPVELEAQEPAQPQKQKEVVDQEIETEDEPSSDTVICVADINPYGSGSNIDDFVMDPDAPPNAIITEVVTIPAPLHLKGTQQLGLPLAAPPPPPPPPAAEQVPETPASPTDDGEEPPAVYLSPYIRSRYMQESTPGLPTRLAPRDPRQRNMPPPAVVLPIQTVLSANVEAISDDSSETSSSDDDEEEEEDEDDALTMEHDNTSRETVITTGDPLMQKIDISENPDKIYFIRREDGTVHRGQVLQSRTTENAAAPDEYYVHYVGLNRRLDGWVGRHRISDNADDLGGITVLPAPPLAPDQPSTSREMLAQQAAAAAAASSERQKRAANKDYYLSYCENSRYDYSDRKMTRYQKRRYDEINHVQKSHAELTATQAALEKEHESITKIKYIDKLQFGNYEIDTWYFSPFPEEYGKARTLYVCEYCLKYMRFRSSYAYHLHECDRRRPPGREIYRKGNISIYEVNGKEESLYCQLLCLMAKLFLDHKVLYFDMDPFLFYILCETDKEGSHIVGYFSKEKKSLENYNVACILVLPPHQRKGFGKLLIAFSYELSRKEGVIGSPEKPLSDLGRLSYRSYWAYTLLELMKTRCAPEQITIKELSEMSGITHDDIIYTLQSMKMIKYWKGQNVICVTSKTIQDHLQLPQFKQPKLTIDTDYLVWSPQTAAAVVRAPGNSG

T1 sequence (Q09472 2-2414): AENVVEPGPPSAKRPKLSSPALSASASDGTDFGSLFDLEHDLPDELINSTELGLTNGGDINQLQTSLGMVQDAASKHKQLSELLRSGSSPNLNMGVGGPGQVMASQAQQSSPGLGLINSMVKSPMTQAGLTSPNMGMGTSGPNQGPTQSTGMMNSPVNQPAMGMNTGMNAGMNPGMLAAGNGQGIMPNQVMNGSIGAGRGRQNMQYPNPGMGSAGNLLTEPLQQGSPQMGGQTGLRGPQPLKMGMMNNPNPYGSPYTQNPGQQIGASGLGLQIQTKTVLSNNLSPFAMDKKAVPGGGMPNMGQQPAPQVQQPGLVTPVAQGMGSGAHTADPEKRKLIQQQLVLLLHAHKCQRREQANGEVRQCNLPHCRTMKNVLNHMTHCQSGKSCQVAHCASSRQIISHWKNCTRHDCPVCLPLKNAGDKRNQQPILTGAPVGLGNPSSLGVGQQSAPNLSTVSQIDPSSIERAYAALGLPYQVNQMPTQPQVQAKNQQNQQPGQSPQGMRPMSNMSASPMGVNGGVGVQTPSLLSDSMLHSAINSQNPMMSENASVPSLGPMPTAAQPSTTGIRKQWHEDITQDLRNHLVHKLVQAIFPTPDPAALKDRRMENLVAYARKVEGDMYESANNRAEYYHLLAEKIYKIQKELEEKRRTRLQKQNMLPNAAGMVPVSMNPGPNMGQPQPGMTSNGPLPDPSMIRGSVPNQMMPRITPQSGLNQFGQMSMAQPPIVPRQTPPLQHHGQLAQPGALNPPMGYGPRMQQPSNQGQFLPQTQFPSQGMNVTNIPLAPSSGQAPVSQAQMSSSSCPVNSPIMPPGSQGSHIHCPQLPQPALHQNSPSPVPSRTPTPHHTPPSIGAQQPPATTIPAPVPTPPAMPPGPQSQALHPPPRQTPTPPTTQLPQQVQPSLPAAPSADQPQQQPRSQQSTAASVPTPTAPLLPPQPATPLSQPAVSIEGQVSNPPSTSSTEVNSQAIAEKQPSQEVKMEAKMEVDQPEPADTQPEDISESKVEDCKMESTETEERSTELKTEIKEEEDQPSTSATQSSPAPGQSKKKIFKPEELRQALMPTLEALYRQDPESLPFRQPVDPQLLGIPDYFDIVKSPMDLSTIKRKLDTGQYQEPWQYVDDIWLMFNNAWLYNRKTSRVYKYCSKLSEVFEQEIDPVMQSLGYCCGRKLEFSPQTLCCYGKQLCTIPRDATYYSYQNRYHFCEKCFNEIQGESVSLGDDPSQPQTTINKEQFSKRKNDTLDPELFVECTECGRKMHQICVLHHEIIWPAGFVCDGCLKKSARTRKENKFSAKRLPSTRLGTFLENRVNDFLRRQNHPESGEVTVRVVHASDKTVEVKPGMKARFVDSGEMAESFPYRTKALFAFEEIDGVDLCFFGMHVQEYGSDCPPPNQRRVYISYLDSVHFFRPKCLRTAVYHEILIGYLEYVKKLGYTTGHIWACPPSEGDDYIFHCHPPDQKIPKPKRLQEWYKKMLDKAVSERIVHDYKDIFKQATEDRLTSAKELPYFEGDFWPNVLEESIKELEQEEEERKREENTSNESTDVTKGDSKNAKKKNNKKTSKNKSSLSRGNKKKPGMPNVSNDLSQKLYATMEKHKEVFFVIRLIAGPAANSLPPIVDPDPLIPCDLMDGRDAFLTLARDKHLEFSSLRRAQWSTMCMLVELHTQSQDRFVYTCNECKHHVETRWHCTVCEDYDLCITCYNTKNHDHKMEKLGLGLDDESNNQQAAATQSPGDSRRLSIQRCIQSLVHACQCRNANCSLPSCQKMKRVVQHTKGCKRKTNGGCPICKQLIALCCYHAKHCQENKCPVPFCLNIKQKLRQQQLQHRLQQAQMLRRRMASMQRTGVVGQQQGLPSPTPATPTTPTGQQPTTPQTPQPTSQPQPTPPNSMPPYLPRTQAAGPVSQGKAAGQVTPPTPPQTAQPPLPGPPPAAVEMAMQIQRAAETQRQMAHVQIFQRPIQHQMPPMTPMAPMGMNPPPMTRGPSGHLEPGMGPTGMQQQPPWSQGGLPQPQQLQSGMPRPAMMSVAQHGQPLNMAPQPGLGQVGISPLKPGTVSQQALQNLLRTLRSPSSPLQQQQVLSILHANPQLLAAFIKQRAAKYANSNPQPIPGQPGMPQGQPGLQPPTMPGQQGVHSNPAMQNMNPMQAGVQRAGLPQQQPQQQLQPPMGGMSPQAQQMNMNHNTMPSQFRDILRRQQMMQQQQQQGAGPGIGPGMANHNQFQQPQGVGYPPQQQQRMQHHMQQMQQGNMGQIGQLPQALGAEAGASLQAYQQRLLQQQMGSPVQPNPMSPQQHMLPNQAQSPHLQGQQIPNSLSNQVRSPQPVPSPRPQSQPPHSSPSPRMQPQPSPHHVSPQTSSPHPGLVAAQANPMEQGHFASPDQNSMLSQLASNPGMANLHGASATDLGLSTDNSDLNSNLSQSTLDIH

CC(=O)SCCNC(=O)CCNC(=O)[C@H](O)C(C)(C)COP(=O)(O)OP(=O)(O)OC[C@H]1O[C@@H](n2cnc3c(N)ncnc32)[C@H](O)[C@@H]1OP(=O)(O)O [acetyl-CoA]
radiometric HAT assay, SDS-PAGE autoradiography [1]: The histone acetyltransferase activities of recombinant GCN5, p300 and MOF were assayed | radiometric HAT assay, SDS-PAGE autoradiography [2]: The histone acetyltransferase activities of recombinant GCN5, p300 and MOF were assayed | radiometric HAT assay, SDS-PAGE autoradiography [3]: The histone acetyltransferase activities of recombinant GCN5, p300 and MOF were assayed
